The text below walks through data of patent US11590116B2 (THERAVANCE BIOPHARMA R&D IP, LLC, priority 2019, dated 2023).

Assay [1] has as its target T1, recombinant human ALK5 (TGF-βR1) protein (Homo sapiens, UniProt P36897).
T1 construct: purchased Life Technologies PR9075A
T1 sequence (P36897 34-503): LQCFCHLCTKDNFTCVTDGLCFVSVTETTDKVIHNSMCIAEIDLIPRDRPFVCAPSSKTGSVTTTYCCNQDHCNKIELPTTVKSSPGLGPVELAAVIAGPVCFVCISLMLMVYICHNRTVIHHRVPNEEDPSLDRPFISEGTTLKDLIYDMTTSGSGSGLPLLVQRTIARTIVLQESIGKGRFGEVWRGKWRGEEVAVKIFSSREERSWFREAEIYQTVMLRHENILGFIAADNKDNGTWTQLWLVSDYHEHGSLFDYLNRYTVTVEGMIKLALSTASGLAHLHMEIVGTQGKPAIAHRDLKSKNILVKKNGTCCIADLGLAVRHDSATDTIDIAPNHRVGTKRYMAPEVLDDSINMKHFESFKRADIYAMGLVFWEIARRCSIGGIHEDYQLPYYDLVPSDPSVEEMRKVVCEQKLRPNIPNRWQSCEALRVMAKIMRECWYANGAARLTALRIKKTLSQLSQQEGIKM
Briefly: Biochemical ALK5 (TGF-βR1) assay to measure pKi (LANCE Ultra ULight kinase assay). Particulars: apparent pKi from pIC50 by Cheng-Prusoff, read-out: ALK5 pKi (converted). The procedure, abridged: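 After a 60 min room-temperature preincubation of ALK5 with compound, phosphorylation proceeds 60 min at 37 °C on ATP addition (125 μM as 5× stock). Detection: Eu-labelled phospho-Thr1342 Topo IIα antibody in EDTA buffer, pH 7.0; emission 665 nm.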

The subject of assay [2] is TGF-β-stimulated SMAD3 phosphorylation in BEAS-2B cells. The experiment in a line: Cellular ALK5 potency assay, inhibition of TGF-β stimulated pSMAD3 formation in BEAS-2B cells. The format is cell-based. To be noted: Homo sapiens; inhibition of TGF-β stimulated pSMAD3 formation, BEAS-2B cells; read-out: BEAS2B pIC50 (converted). The procedure, abridged: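 SMAD3 phosphorylation was measured by AlphaLISA after 30 min TGF-β stimulation (10 ng/mL final) of BEAS-2B cells preincubated 1 h with compound at 37 °C. Results given as pIC50.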

Consider `Cc1cccc(-c2[nH]cnc2-c2ccc3ncc(C(=O)O[C@H]4C[C@@H](N)C4)cc3c2)n1` [Compound 759, (3-aminocyclobutyl) 6-[5-(6-methyl-2-pyridyl)-1H-imidazol-4-yl]quinoline-3-carboxylate], for which the Ki in assay [1] is 0.0398 to 0.316 nM. Moreover, the IC50 in assay [2] is 25.1 to 158 nM.
The like results for `CC(=O)Oc1ccnc2ccc(-c3c[nH]nc3-c3cccc(C)n3)nc12` [Compound 857, [6-[3-(6-methyl-2-pyridyl)-1H-pyrazol-4-yl]-1,5-naphthyridin-4-yl]acetate] were, in that order, 0.398 to 3.16 nM and 25.1 to 158 nM.
Taken in the same sequence, the figures for `Cc1cccc(-c2[nH]cnc2-c2ccc3ncc(N4CCC5(CCNCC5)C4)cc3c2)n1` [Compound 160, 2-[6-[5-(6-methyl-2-pyridyl)-1H-imidazol-4-yl]-3-quinolyl]-2,8-diazaspiro[4.5]decane] were below 0.0316 nM and 25.1 to 158 nM.
The like results for `Cc1nc(-c2n[nH]cc2-c2ccc3ncc(-c4cnn(CC5CC(N)C5)c4)cc3n2)ccc1F` (centres unmarked) [Compound 455, 3-[[4-[6-[3-(5-fluoro-6-methyl-2-pyridyl)-1H-pyrazol-4-yl]-1,5-naphthyridin-3-yl]pyrazol-1-yl]methyl]cyclobutanamine] were, in that order, 0.0398 to 0.316 nM and 25.1 to 158 nM.
Take `Cc1cccc(-c2n[nH]cc2-c2ccc3ncc(N4CCN(C5(C(N)=O)CCCC5)CC4)cc3n2)n1` [Compound 528, 1-[4-[6-[3-(6-methyl-2-pyridyl)-1H-pyrazol-4-yl]-1,5-naphthyridin-3-yl]piperazin-1-yl]cyclopentanecarboxamide]: the Ki in assay [1] was 0.398 to 3.16 nM. Also, the IC50 in assay [2] was 200 to 1260 nM.
The like results for `Cc1cccc(-c2[nH]cnc2-c2ccc3ncc(NC4CCC5(CC4)CNC5)cc3c2)n1` [Compound 14, N-(2-azaspiro[3.5]nonan-7-yl)-6-[5-(6-methyl-2-pyridyl)-1H-imidazol-4-yl]quinolin-3-amine] were, in that order, 0.0398 to 0.316 nM and 200 to 1260 nM.
Taken in the same sequence, the figures for `Cc1cccc(-c2n[nH]cc2-c2ccc3ncc(NCCN4CCN(C(C)C)CC4)cc3c2)n1` [Compound 428, N-[2-(4-isopropylpiperazin-1-yl)ethyl]-6-[3-(6-methyl-2-pyridyl)-1H-pyrazol-4-yl]quinolin-3-amine] were 0.0398 to 0.316 nM and 25.1 to 158 nM.
The like results for `Cc1cccc(-c2n[nH]cc2-c2ccc3ncc(-c4ncc5n4CCNC5)cc3n2)n1` [Compound 143, 2-[3-(6-methyl-2-pyridyl)-1H-pyrazol-4-yl]-7-(5,6,7,8-tetrahydroimidazo[1,5-a]pyrazin-3-yl)-1,5-naphthyridine] were, in that order, 0.0398 to 0.316 nM and 200 to 1260 nM.
In the case of `Cc1cccc(-c2[nH]cnc2-c2ccc3ncc(-c4ncc(C(=O)O)s4)cc3c2)n1` [Compound 1017, 2-(6-(5-(6-methylpyridin-2-yl)-1H-imidazol-4-yl)quinolin-3-yl)thiazole-5-carboxylic acid], the Ki in assay [1] is 0.0398 to 0.316 nM. In assay [2], the IC50 is 1580 to 10000 nM.
The like results for `Cc1cccc(-c2[nH]ncc2-c2ccc3ncc(C(=O)O[C@H]4CCCNC4)cc3c2)n1` [Compound 1201, [(3S)-3-piperidyl] 6-[5-(6-methyl-2-pyridyl)-1H-pyrazol-4-yl]quinoline-3-carboxylate] were, in that order, 0.0398 to 0.316 nM and 25.1 to 158 nM.
On to `Cc1cccc(-c2n[nH]cc2-c2ccc3ncc(N4CCCN(C)C(C)C4)cc3n2)n1` (racemic) [Compound 19, 2-[3-(6-methyl-2-pyridyl)-1H-pyrazol-4-yl]-7-[rac-(3S)-3,4-dimethyl-1,4-diazepan-1-yl]-1,5-naphthyridine], for which the Ki in assay [1] was 0.0398 to 0.316 nM. For the same compound, the IC50 in assay [2] was 25.1 to 158 nM.
The like results for `Cc1cccc(-c2[nH]cnc2-c2ccc3ncc(-c4csc(C(=O)O[C@H]5CC[C@@](C)(N)CC5)c4)cc3c2)n1` [Compound 1232, (4-amino-4-methyl-cyclohexyl) 4-[6-[5-(6-methyl-2-pyridyl)-1H-imidazol-4-yl]-3-quinolyl]thiophene-2-carboxylate] were, in that order, below 0.0316 nM and 25.1 to 158 nM.
Taken in the same sequence, the figures for `Cc1cccc(-c2n[nH]cc2-c2ccc3ncc(-c4[nH]nc5c4CNCC5)cc3n2)n1` [Compound 489, 2-[3-(6-methyl-2-pyridyl)-1H-pyrazol-4-yl]-7-(4,5,6,7-tetrahydro-2H-pyrazolo[4,3-c]pyridin-3-yl)-1,5-naphthyridine] were 0.0398 to 0.316 nM and 200 to 1260 nM.
Turning to `Cc1nc(-c2n[nH]cc2-c2ccc3ncc(-c4ncn5c4CNCC5)cc3n2)ccc1F` [Compound 107, 2-[3-(5-fluoro-6-methyl-2-pyridyl)-1H-pyrazol-4-yl]-7-(5,6,7,8-tetrahydroimidazo[1,5-a]pyrazin-1-yl)-1,5-naphthyridine], the Ki in assay [1] was 0.0398 to 0.316 nM. Also, the IC50 in assay [2] is 25.1 to 158 nM.
The like results for `Cc1cccc(-c2[nH]cnc2-c2ccc3ncc(-c4ccc(C(=O)O[C@@H]5CCNC5)nc4)cc3c2)n1` [Compound 1110, [(3R)-pyrrolidin-3-yl] 5-[6-[5-(6-methyl-2-pyridyl)-1H-imidazol-4-yl]-3-quinolyl]pyridine-2-carboxylate] were, in that order, 0.0398 to 0.316 nM and 200 to 1260 nM.
`Cc1cccc(-c2[nH]ncc2-c2ccc3ncc(C(=O)N4CC(N5CCOCC5)C4)cc3n2)n1` [Compound 352, [6-[5-(6-methyl-2-pyridyl)-1H-pyrazol-4-yl]-1,5-naphthyridin-3-yl]-(3-morpholinoazetidin-1-yl)methanone]: the Ki in assay [1] is 3.98 to 31.6 nM. In addition, the IC50 in assay [2] is 200 to 1260 nM.
Taken in the same sequence, the figures for `Cc1cccc(-c2n[nH]cc2-c2ccc3nccc(C(=O)OCCCN4CCOCC4)c3n2)n1` [Compound 826, 3-morpholinopropyl 6-[3-(6-methyl-2-pyridyl)-1H-pyrazol-4-yl]-1,5-naphthyridine-4-carboxylate] were 0.398 to 3.16 nM and 25.1 to 158 nM.
In the case of `Cc1cccc(-c2[nH]cnc2-c2ccc3ncc(C4=CCN(C)C4)cc3c2)n1` [Compound 16, 3-(1-methyl-2,5-dihydropyrrol-3-yl)-6-[5-(6-methyl-2-pyridyl)-1H-imidazol-4-yl]quinoline], in assay [1], the Ki was below 0.0316 nM. Besides, the IC50 in assay [2] is below 20 nM.
`CNC1CN(c2cnc3ccc(-c4nc[nH]c4-c4cccc(C)n4)cc3c2)C1` [Compound 614, N-methyl-1-[6-[5-(6-methyl-2-pyridyl)-1H-imidazol-4-yl]-3-quinolyl]azetidin-3-amine]: the Ki in assay [1] was 0.0398 to 0.316 nM. Also, the IC50 in assay [2] was 25.1 to 158 nM.
`Cc1cccc(-c2n[nH]cc2-c2ccc3ncc(NC(=O)C(F)(F)F)cc3n2)n1` [Compound 610, 2,2,2-trifluoro-N-[6-[3-(6-methyl-2-pyridyl)-1H-pyrazol-4-yl]-1,5-naphthyridin-3-yl]acetamide]: the Ki in assay [1] is 0.0398 to 0.316 nM. Moreover, the IC50 in assay [2] is 25.1 to 158 nM.
The like results for `Cc1cccc(-c2n[nH]cc2-c2ccc3ncc(C4=CCC(N)CC4)cc3n2)n1` (centres unmarked) [Compound 21, 4-[6-[3-(6-methyl-2-pyridyl)-1H-pyrazol-4-yl]-1,5-naphthyridin-3-yl]cyclohex-3-en-1-amine] were, in that order, below 0.0316 nM and 25.1 to 158 nM.
For `Cc1cccc(-c2[nH]cnc2-c2ccc3ncc(C(=O)OC[C@H]4CC[C@H](N)CC4)cc3c2)n1` [Compound 765, (4-aminocyclohexyl)methyl 6-[5-(6-methyl-2-pyridyl)-1H-imidazol-4-yl]quinoline-3-carboxylate], the Ki in assay [1] was 0.0398 to 0.316 nM. Besides, the IC50 in assay [2] was 25.1 to 158 nM.
